Earlier results in patent US20180311347A1, “POLYMORPHISMS IN CACHEXIA PREDICT CLINICAL OUTCOMES OF COLORECTAL CANCER PATIENTS RECEIVING IRINOTECAN AND BEVACIZUMAB” (University of Southern California, priority 2017, published 2018).

Tested on: type I activin like receptor

VEGF expression: decrease VEGF expression | angiogenesis: inhibit angiogenesis
SMILES: NC(=O)c1ccc(-c2nc(-c3ccc4c(c3)OCO4)c(-c3ccccn3)[nH]2)cc1 [SB431542]
